Test results reported in ChEMBL document CHEMBL2363022, “Malaria Box Schistosomiasis Screening Data” (2013).

How the values were obtained:
Format in all cases: functional
Set-up in all cases: scale not given here
Schistosoma mansoni [1] = tested on: Schistosoma mansoni
Schistosoma mansoni [2] = tested on: Schistosoma mansoni; remark: listed apart in the source
Schistosoma mansoni [3] = tested on: Schistosoma mansoni; remark: listed apart in the source

SMILES	Toxicity (Schistosoma mansoni [1])	Toxicity (Schistosoma mansoni [2])	Toxicity (Schistosoma mansoni [3])
CC1(c2ccccc2)Nc2ccccc2-c2nc3ccccc3n21 (stereo not given)	0	0	0
Br.CCn1c2c(c(=N)c3c1CCC3)CCCC2	0	0	0
CC(=O)Nc1nnc(SCc2c(C)cc(C(C)(C)C)cc2C)s1	0	0	0
CCOc1cc(Cl)c(C(C)NC(=O)c2ccccc2)cc1OCC (stereo not given)	0	0	0
CCOc1cc(CNC(C)C(O)c2ccccc2)cc(Cl)c1OCC (stereo not given)	1	0	0
CCOc1ccc(Nc2ccnc3cc(Cl)ccc23)cc1	0	2	0
COc1cc(C(=O)Nc2ccc(-c3nc4ccccc4[nH]3)cc2)cc(OC)c1OC	0	0	0
Cl.Cn1c(=O)n(C)c2cc(CNCCNc3ccnc4cc(Cl)ccc34)ccc21	1	0	1
Cc1ccc(OCCCCCCNCCO)c(C)c1	0	0	0
Cc1ccc(-c2nc3ccccc3o2)cc1NCc1cc(Cc2ccccc2)ccc1O	0	0	0
c1ccc(/C2=N/c3ccccc3/N=C(/c3ccccc3)c3ccccc32)cc1	1	1	1
COc1ccc(-c2nc(NC(=O)CS(=O)(=O)c3ccc(F)cc3)sc2C)cc1	0	0	0
COc1ccc(-c2cc(=O)oc3c4c(ccc23)OCN(Cc2ccc(F)cc2)C4)cc1	0	0	0
CCCc1c(C)nc2ccc(Br)cc2c1O	0	0	0
Cc1ccc(-c2cc3nc4c(c(O)n3n2)CCCC4)cc1	0	0	0
O=C(Nc1ccc(Cl)cc1C(=O)Nc1ccncc1)c1ccc(Cl)cc1Cl	0	0	0
CCOc1ccc(CN2CCN(CC(O)COc3ccc(OCC(O)CN4CCN(Cc5ccc(OCC)cc5)CC4)cc3)CC2)cc1 (stereo not given)	4	3	4
COc1ccc2sc(N(Cc3cccnc3)C(=O)c3ccc(C#N)cc3)nc2c1	0	0	0
CCOc1cc2c(cc1OCC)C(c1cc(OC)c(O)cc1Cl)NCC2 (stereo not given)	0	0	0
Cc1ccc(C(=O)c2oc3ccc4c(C)cc(=O)oc4c3c2C)cc1	0	0	0
CC1CCN(Cc2c(O)ccc3cc(-c4nc5ccccc5s4)c(=O)oc23)CC1	0	0	0
CC1CC(C)CN(C(=O)c2ccc(Cl)cc2Cl)C1 (stereo not given)	0	0	0
Cc1ccnc(NC(c2cccc(OCc3ccccc3)c2)c2ccc3cccnc3c2O)c1 (stereo not given)	4	1	4
Cc1cc(C)cc(Nc2cc(C)nc3nc(C(F)(F)F)nn23)c1	0	0	0

SMILES	Toxicity (Schistosoma mansoni [1])	Toxicity (Schistosoma mansoni [2])	Toxicity (Schistosoma mansoni [3])
CCOC(=O)c1cn(CC)c2cc(N(C)CCc3ccc(OC)c(OC)c3)c(F)cc2c1=O	0	0	0
Cn1c(=O)c2cc(C(=O)NCCCN3CCCCCC3)sc2c2ccccc21	0	0	0
CCCC(c1nnnn1C1CCCCC1)N1CCN(C(=O)c2ccco2)CC1.Cl (stereo not given)	0	0	0
Cc1sc(NC(=O)c2ccccc2)c(C(c2cccs2)N2CCN(c3ccccc3)CC2)c1C (stereo not given)	0	0	0
COCCNC(=O)c1ccc(OC2CCN(Cc3ccc(F)c(F)c3)CC2)c(Cl)c1	0	0	0
Cl.Oc1ccccc1CNCC12CC3CC(CC(C3)C1)C2	0	0	0
Cc1ccc2cc3c(N)c4c(C)ccc(C)c4nc3nc2c1	0	0	0
CC1=C(CC(=O)c2cccc([N+](=O)[O-])c2)C(=O)c2ccccc2C1=O	2	0	2
CC(C)(C)c1ccc(O)c(CNC2CCCCC2)c1	0	0	0
OC(Cn1nnc2ccccc21)Cn1c2ccc(Br)cc2c2cc(Br)ccc21 (stereo not given)	0	0	0
CCCCc1c(CCC)c(=N)c2ccccc2n1C.I	0	0	0
Oc1ccc(Br)cc1CN1CCN(Cc2ccc(Cl)cc2)CC1	0	1	0
O=C(Nc1ccc(CN2CCOCC2)cc1)c1ccc(-c2ccc(Br)cc2)o1	0	0	0
Cc1cc(NCCN2CCCCC2)c2ccc3ccccc3c2n1	4	4	4
Cc1[nH]c(-c2ccc(F)cc2)cc1C(=O)NC1CCN(Cc2ccccc2)CC1	3	0	0
CCOc1c(Br)cc(C2C(C(=O)OC)=CN(C)C=C2C(=O)OC)cc1OC	0	0	0
O=c1cc(NC2CCN(CCCc3ccccc3)CC2)c2cc(Cl)ccc2o1	2	2	1
CCOC(=O)c1c(NC(=O)c2ccccc2)sc2c(O)c(CN(CC)CC)ccc12	0	0	0
COc1ccc(-n2ccnc2SCC(=O)Nc2cc(C)ccc2C)c(OC)c1	1	1	1
OC(CNC1CCCCC1)Cn1c2ccc(I)cc2c2cc(I)ccc21 (stereo not given)	4	4	4
CCN1CCCC1CNc1[nH]cnc2c3cc(Cl)ccc3nc1-2 (stereo not given)	0	0	0
COc1cccc(C(=O)NC(c2ccc(C)cc2)c2cc(Cl)c3cccnc3c2O)c1 (stereo not given)	4	1	4
C[n+]1c2ccccc2nc2ccc(NCCO)cc21	3	0	0
COc1ccc(CN2CCN(Cc3ccccc3)CC2)c(O)c1	0	0	0

SMILES	Toxicity (Schistosoma mansoni [1])	Toxicity (Schistosoma mansoni [2])	Toxicity (Schistosoma mansoni [3])
Nc1nc(Nc2cccc(F)c2)nc2ccccc12	0	0	0
CCCCCCc1cc2cc(-c3nc4ccccc4[nH]3)c(=Nc3ccccc3C)oc2cc1O	3	0	3
COc1ccc(-c2cc3c(SCC(=O)Nc4cc(C(F)(F)F)ccc4Cl)nccn3n2)cc1	0	0	0
Oc1ccc(Cl)cc1CNc1nc2ccccc2[nH]1	0	0	0
COc1cccc(-c2nn(C)c3sc(C(=O)NCCN4CCN(c5ccccc5F)CC4)cc23)c1	3	0	0
Cc1ccc(C2CC(C(F)(F)F)n3nc(C(=O)N4CCN(C(c5ccccc5)c5ccccc5)CC4)cc3N2)cc1 (stereo not given)	0	0	0
C=CCc1c(C)nc2ccccc2c1O	0	0	0
FC(F)(F)c1cccc(CNC2CCN(CCc3ccccc3)CC2)c1	0	0	0
CCN1CCN(c2c(C(=O)c3ccccc3)cnc3cc(OC)c(OC)cc23)CC1	0	0	0
CCOc1ccccc1CN1CCc2nc3cc(C(C)(C)C)nn3c(O)c2C1	2	0	2
CN(C)c1ccc(-c2nc3cc(N)ccc3[nH]2)cc1	0	0	0
COc1ccc2nc(N)nc(C)c2c1	4	0	0
CCCN(CCC)CCCNC(=O)c1cc2c(-c3ccc(OC)c(OC)c3)nn(C)c2s1	3	0	0
CC(C)CNC(=O)c1c(N)n(CCc2ccccc2F)c2nc3ccccc3nc12	2	0	2
COc1ccc2nc(C)cc(Nc3ccccc3O)c2c1	0	0	0
Cc1cc(N(C)C)nc(Nc2ccc(NC(=O)Nc3ccccc3)cc2)n1	3	0	3
CCC(C)NCC(O)(c1ccc(Cl)cc1)c1ccc(Cl)cc1 (stereo not given)	0	1	0
COc1ccc(-c2cn3c(C(=O)Nc4ccccc4Cl)c(-c4ccccc4)c4c3n2CCCC4)cc1	0	0	0
Cc1cc(NC(=O)c2cccc(C(F)(F)F)c2)n(-c2nc(-c3ccc4c(c3)OCO4)cs2)n1	3	0	0
O=C1c2ccccc2C2=Nc3ccccc3SC(c3cccc(F)c3)C12 (stereo not given)	1	1	1
COc1ccc(CNC(=O)c2cc3c(=O)n4ccccc4nc3n(CCc3ccccc3)c2=N)cc1	4	1	4
CSc1ccccc1C(=O)Nc1nc(-c2ccccn2)cs1	0	0	0
